Measurements from US9512425B2, “Inhibiting migration of cancer cells” (Cornell University, priority 2012, dated 2016).

Tests used:
cortical actin = test: Immunostaining for vinculin and F-actin (phalloidin); assay type: cell-based, human; conditions: MDA-miR-708 cells
Method: For immunofluorescence staining, cells were fixed overnight in paraformaldehyde before incubation with primary antibodies; mouse-monoclonal VINCULIN (Cat#V9131, Sigma-Aldrich, 1:400) and rabbit-polyclonal phosphorylated FAK (pS910, Cat #44596G, Invitrogen, 1:1000). Alexa Flour 568 or Alexa Fluor 647 anti-mouse IgG, and Alexa Fluor 647 anti-rabbit IgG (Invitrogen), were used for visualization. Following incubation with secondary antibodies the tissue sections were treated with Rhodamine Phalloidin (Cat# R415, Invitrogen). Fluorescent images were obtained using a computerized Zeiss fluorescent microscope (Axiovert 200M), fitted with an apotome and an HRM camera. Images were analyzed using Axiovision 4.6 software (Carl Zeiss Inc.).

MDA cells = test: Cell proliferation assay (EdU); assay type: cell-based, human; conditions: MDA cells transformed with miR-708 lentiviral expression system
Method: For cell proliferation assays, 1×10^6 MDA cells were cultured separately in suspension in non-adhesive 6-well dishes (Corning Inc) for 2 days. EdU ([…]) was administrated to culture medium for 30 min to label proliferating cells. Cells were harvested, washed once with PBS, and fixed with 4% paraformaldehyde for 15 min at room temperature. Fixed cells were permeabilized and stained for EdU incorporation and DNA contains with the Click-iT® EdU Cell Proliferation Assay kit (Invitrogen Inc) according to the standard protocol. Flow analyses of cell phases were performed using an LSRII coupled with Diva software (BD Bioscience).

## miR-708: microRNA, mature sequence 5'-AAGGAGCUUACAAUCUAGCUGGG-3' (SEQ ID NO: 2); expressed from lentiviral vector or used as synthetic precursor
Cortical actin
  cortical actin phenotype: thick bands of cortical actin rings
MDA cells
  cell proliferation: No significant change
